Experimental data reported in US6737383B1, “Herbicidal oxadiazolidines” (priority 1999, dated 2004).

Tests used:
velvetleaf = experiment: Test B pre/postemergence velvetleaf; format: in vivo, Abutilon theophrasti; details: for Plant response rating, Velvetleaf: scale of 0 to 10 where 0 is no effect and 10 is complete control
Outline: (§1)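 Response is a visual 0-to-10 score relative to untreated plants, where 0 means no effect and 10 means complete control, taken twelve to sixteen days after application. Treatments went onto soil at planting and onto foliage of 1- to 4-leaf plants, using a surfactant-containing non-phytotoxic solvent.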

smallflower flatsedge = experiment: Test B flood test smallflower flatsedge; format: in vivo, Cyperus difformis
Outline: (§2)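 Read-out is a visual response score from 0 (no effect) to 10 (complete control), assigned by comparison with untreated controls. Treatment was applied at the 2-leaf stage, and plants stayed in the greenhouse for twelve to sixteen days before scoring.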

wheat = experiment: Test B pre/postemergence wheat; format: in vivo, Triticum aestivum; details: for Plant response rating, Wheat: scale of 0 to 10 where 0 is no effect and 10 is complete control
Outline: as §1

giant foxtail = experiment: Test B pre/postemergence giant foxtail; format: in vivo, Setaria faberii
Outline: as §1

morningglory = experiment: Test B pre/postemergence morningglory; format: in vivo, Ipomoea hederacea; details: for Plant response rating, Morningglory: scale of 0 to 10 where 0 is no effect and 10 is complete control
Outline: as §1

surinam grass = experiment: Test B pre/postemergence surinam grass; format: in vivo, Brachiaria decumbens
Outline: as §1

pigweed = experiment: Test B pre/postemergence pigweed; format: in vivo, Amaranthus retroflexus; details: for Plant response rating, Redroot pigweed: scale of 0 to 10 where 0 is no effect and 10 is complete control
Outline: as §1

duck salad = experiment: Test B flood test duck salad; format: in vivo, Heteranthera limosa
Outline: as §2

rice = experiment: Test B flood test rice; format: in vivo, Oryza sativa
Outline: as §2

sugar beet = experiment: Test B pre/postemergence sugar beet; format: in vivo, Beta vulgaris; details: for Plant response rating, Sugarbeets: scale of 0 to 10 where 0 is no effect and 10 is complete control
Outline: as §1

blackgrass = experiment: Test B pre/postemergence blackgrass; format: in vivo, Alopecurus myosuroides
Outline: as §1

crabgrass = experiment: Test B pre/postemergence crabgrass; format: in vivo, Digitaria sanguinalis
Outline: as §1

corn = experiment: Test B pre/postemergence corn; format: in vivo, Zea mays
Outline: as §1

purple nutsedge = experiment: Test B pre/postemergence purple nutsedge; format: in vivo, Cyperus rotundus; details: for Plant response rating, Nutsedge: scale of 0 to 10 where 0 is no effect and 10 is complete control
Outline: as §1

cocklebur = experiment: Test B pre/postemergence cocklebur; format: in vivo, Xanthium strumarium
Outline: as §1

rape = experiment: Test B pre/postemergence rape; format: in vivo, Brassica napus; details: for Plant response rating, Rape: scale of 0 to 10 where 0 is no effect and 10 is complete control
Outline: as §1

[1] = Postemergence, Rate 250 g/ha, scale 0 to 10
[2] = Preemergence, Rate 250 g/ha, scale 0 to 10, 0 is no effect, 10 is complete control
[3] = Preemergence, Rate 500 g/ha, scale 0 to 10, 0 is no effect, 10 is complete control
[4] = Rate 62 g/ha, Postemergence, scale 0 to 10 (0 no effect, 10 complete control)
[5] = Rate 125 g/ha, Postemergence, scale 0 to 10, 0 is no effect, 10 is complete control
[6] = Rate 62 g/ha, flood test species, Pre-emergence, visual evaluation after twelve to sixteen days
[7] = Rate 125 g/ha, under heading Pre-emergence, flood test species, visual evaluation after twelve to sixteen days
[8] = Rate 250 g/ha, Pre-emergence (flood test species), scale 0 to 10, 0 is no effect, 10 is complete control
[9] = Rate 500 g/ha, Pre-emergence, flood test species, scale 0 to 10 (0 no effect, 10 complete control)
[10] = Postemergence, Rate 500 g/ha, scale of 0 to 10 where 0 is no effect and 10 is complete control
[11] = Preemergence, Rate 62 g/ha, scale of 0 to 10 where 0 is no effect and 10 is complete control
[12] = Preemergence, Rate 125 g/ha, scale of 0 to 10 where 0 is no effect and 10 is complete control

CC(C)N(C(=O)n1oc(=O)n(COC(=O)C(C)(C)C)c1=O)c1ccc(F)cc1 [Compound 462]
0: Velvetleaf plant response rating (velvetleaf; [1]) | Plant response rating, Velvetleaf (velvetleaf; Preemergence, Rate 62 g/ha) | Plant response rating, Velvetleaf (velvetleaf; Preemergence, Rate 125 g/ha) | Velvetleaf plant response rating (velvetleaf; [2]) | Velvetleaf plant response rating (velvetleaf; [3]) | Velvetleaf plant response rating (velvetleaf; [4]) | Velvetleaf plant response rating (velvetleaf; [5]) | Plant response rating, S. Flatsedge (0 to 10 scale, 0 is no effect, 10 is complete control) (smallflower flatsedge; [6]) | S. Flatsedge plant response rating (0 to 10 scale, 0 is no effect, 10 is complete control) (smallflower flatsedge; [7]) | S. Flatsedge plant response rating (smallflower flatsedge; [8]) | S. Flatsedge plant response rating (smallflower flatsedge; [9]) | Wheat plant response rating (wheat; [1]) | Plant response rating, Wheat (wheat; Preemergence, Rate 62 g/ha) | Plant response rating, Wheat (wheat; Preemergence, Rate 125 g/ha) | Wheat plant response rating (wheat; [2]) | Wheat plant response rating (wheat; [3]) | Wheat plant response rating (wheat; [4]) | Wheat plant response rating (wheat; [5]) | Giant foxtail plant response rating (giant foxtail; [1]) | Giant foxtail plant response rating (giant foxtail; [10]) | Plant response rating, Giant foxtail (giant foxtail; [11]) | Plant response rating, Giant foxtail (giant foxtail; [12]) | Giant foxtail plant response rating (giant foxtail; [2]) | Giant foxtail plant response rating (giant foxtail; [3]) | Giant foxtail plant response rating (giant foxtail; [4]) | Giant foxtail plant response rating (giant foxtail; [5]) | Morningglory plant response rating (morningglory; [1]) | Plant response rating, Morningglory (morningglory; Preemergence, Rate 62 g/ha) | Plant response rating, Morningglory (morningglory; Preemergence, Rate 125 g/ha) | Morningglory plant response rating (morningglory; [2]) | Morningglory plant response rating (morningglory; [3]) | Morningglory plant response rating (morningglory; [4]) | Morningglory plant response rating (morningglory; [5]) | B. signalgrass plant response rating (surinam grass; Postemergence, Rate 250 g/ha, scale 0 to 10, 0 no effect, 10 complete control) | B. signalgrass plant response rating (surinam grass; [10]) | Plant response rating, B. signalgrass (surinam grass; [11]) | Plant response rating, B. signalgrass (surinam grass; [12]) | B. signalgrass plant response rating (surinam grass; [2]) | B. signalgrass plant response rating (surinam grass; [3]) | B. signalgrass plant response rating (surinam grass; [4]) | B. signalgrass plant response rating (surinam grass; [5]) | Redroot pigweed plant response rating (pigweed; [1]) | Plant response rating, Redroot pigweed (pigweed; Preemergence, Rate 62 g/ha) | Plant response rating, Redroot pigweed (pigweed; Preemergence, Rate 125 g/ha) | Redroot pigweed plant response rating (pigweed; [2]) | Redroot pigweed plant response rating (pigweed; [3]) | Redroot pigweed plant response rating (pigweed; [4]) | Redroot pigweed plant response rating (pigweed; [5]) | Plant response rating, Ducksalad (0 to 10 scale, 0 is no effect, 10 is complete control) (duck salad; [6]) | Ducksalad plant response rating (0 to 10 scale, 0 is no effect, 10 is complete control) (duck salad; [7]) | Ducksalad plant response rating (duck salad; [8]) | Ducksalad plant response rating (duck salad; [9]) | Plant response rating, Rice (0 to 10 scale, 0 is no effect, 10 is complete control) (rice; [6]) | Rice plant response rating (0 to 10 scale, 0 is no effect, 10 is complete control) (rice; [7]) | Rice plant response rating (rice; [8]) | Rice plant response rating (rice; [9]) | Sugarbeets plant response rating (sugar beet; [1]) | Plant response rating, Sugarbeets (sugar beet; Preemergence, Rate 62 g/ha) | Plant response rating, Sugarbeets (sugar beet; Preemergence, Rate 125 g/ha) | Sugarbeets plant response rating (sugar beet; [2]) | Sugarbeets plant response rating (sugar beet; [3]) | Sugarbeets plant response rating (sugar beet; [4]) | Sugarbeets plant response rating (sugar beet; [5]) | Blackgrass plant response rating (blackgrass; [1]) | Blackgrass plant response rating (blackgrass; [10]) | Plant response rating, Blackgrass (blackgrass; [11]) | Plant response rating, Blackgrass (blackgrass; [12]) | Blackgrass plant response rating (blackgrass; [2]) | Blackgrass plant response rating (blackgrass; [3]) | Blackgrass plant response rating (blackgrass; [4]) | Blackgrass plant response rating (blackgrass; [5]) | Crabgrass plant response rating (crabgrass; [1]) | Crabgrass plant response rating (crabgrass; [10]) | Plant response rating, Crabgrass (crabgrass; [11]) | Plant response rating, Crabgrass (crabgrass; [12]) | Crabgrass plant response rating (crabgrass; [2]) | Crabgrass plant response rating (crabgrass; [3]) | Crabgrass plant response rating (crabgrass; [4]) | Crabgrass plant response rating (crabgrass; [5]) | Corn plant response rating (corn; [1]) | Corn plant response rating (corn; [10]) | Plant response rating, Corn (corn; [11]) | Plant response rating, Corn (corn; [12]) | Corn plant response rating (corn; [2]) | Corn plant response rating (corn; [3]) | Corn plant response rating (corn; [4]) | Corn plant response rating (corn; [5]) | Nutsedge plant response rating (purple nutsedge; [1]) | Plant response rating, Nutsedge (purple nutsedge; Preemergence, Rate 62 g/ha) | Plant response rating, Nutsedge (purple nutsedge; Preemergence, Rate 125 g/ha) | Nutsedge plant response rating (purple nutsedge; [2]) | Nutsedge plant response rating (purple nutsedge; [3]) | Nutsedge plant response rating (purple nutsedge; [4]) | Nutsedge plant response rating (purple nutsedge; [5]) | Cocklebur plant response rating (cocklebur; [1]) | Cocklebur plant response rating (cocklebur; [10]) | Plant response rating, Cocklebur (cocklebur; [11]) | Plant response rating, Cocklebur (cocklebur; [12]) | Cocklebur plant response rating (cocklebur; [2]) | Cocklebur plant response rating (cocklebur; [3]) | Cocklebur plant response rating (cocklebur; [4]) | Cocklebur plant response rating (cocklebur; [5]) | Rape plant response rating (rape; [1]) | Plant response rating, Rape (rape; Preemergence, Rate 62 g/ha) | Plant response rating, Rape (rape; Preemergence, Rate 125 g/ha) | Rape plant response rating (rape; [2]) | Rape plant response rating (rape; [3]) | Rape plant response rating (rape; [4]) | Rape plant response rating (rape; [5])
